Test results reported in PubChem BioAssay AID2060894 (Molecular Pharmacology Branch, DTP, NCI, 2025).
pIC50: −log10 of the molar value.

System: K12877-001-R-J1-PDC complex spheroid viability
Test: Anticancer human tumor K12877-001-R-J1-PDC patient-derived lung adenocarcinoma cell line growth inhibition [RAS]
Settings: for pIC50: curve of first compound; for viability, T/C: stronger effect = lower value; active = viability on the fitted dose curve at most 10% of control; inactive = the rest
Method in brief: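 Agents were tested in combination matrices in half-log decrements from a top concentration at or near clinical Cmax (10 microM if undetermined). Targets were multi-cell spheroids of tumour lines plus HUVEC and MSC stromal cells.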

[1] = second compound 0.00316 µM, first compound 0.0316 µM
[2] = second compound 0.00316 µM, first compound 0.1 µM
[3] = second compound 0.01 µM, first compound 0.0316 µM
[4] = second compound 0.01 µM, first compound 0.1 µM
[5] = second compound 0.0316 µM, first compound 0.0316 µM
[6] = second compound 0.0316 µM, first compound 0.1 µM
[7] = second compound 0.1 µM, first compound 0.0316 µM
[8] = second compound 0.1 µM, first compound 0.1 µM
[9] = second compound 0.316 µM, first compound 0.0316 µM
[10] = second compound 0.316 µM, first compound 0.1 µM
[11] = second compound 1 µM, first compound 0.0316 µM
[12] = second compound 1 µM, first compound 0.1 µM
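Note: spheroids exposed to agents for one week before readout.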
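Throughout, for viability, T/C: tumour cells co-cultured with HUVEC and mesenchymal stem cells in spheroids.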

CC(C)NCC(C(=O)N1CCN(c2ncnc3c2C(C)CC3O)CC1)c1ccc(Cl)cc1 (centres undefined) + C=CC(=O)N1CCN(c2nc(OCC3CCCN3C)nc3c(F)c(-c4nc(N)cc(C)c4C(F)(F)F)c(Cl)cc23)C(C)C1
5.85: pIC50 (second compound 0.0316 µM) | pIC50 (second compound 0.1 µM)
inactive: viability, T/C [1] 87.9% | viability, T/C [2] 86.1% | viability, T/C (second compound 0.00316 µM, first compound 0.316 µM) 74.5% | viability, T/C (second compound 0.00316 µM, first compound 1 µM) 78.4% | viability, T/C (second compound 0.00316 µM, first compound 3.16 µM) 38% | viability, T/C (second compound 0.00316 µM, first compound 10 µM) 22% | viability, T/C [3] 82.8% | viability, T/C [4] 89.2% | viability, T/C (second compound 0.01 µM, first compound 0.316 µM) 68.8% | viability, T/C (second compound 0.01 µM, first compound 1 µM) 65.8% | viability, T/C (second compound 0.01 µM, first compound 3.16 µM) 30.2% | viability, T/C (second compound 0.01 µM, first compound 10 µM) 18% | viability, T/C [5] 85.5% | viability, T/C [6] 90.6% | viability, T/C (second compound 0.0316 µM, first compound 0.316 µM) 73.3% | viability, T/C (second compound 0.0316 µM, first compound 1 µM) 63.3% | viability, T/C (second compound 0.0316 µM, first compound 3.16 µM) 23.7% | viability, T/C (second compound 0.0316 µM, first compound 10 µM) 17.6% | viability, T/C [7] 84% | viability, T/C [8] 71.5% | viability, T/C (second compound 0.1 µM, first compound 0.316 µM) 82.4% | viability, T/C (second compound 0.1 µM, first compound 1 µM) 63.2% | viability, T/C (second compound 0.1 µM, first compound 3.16 µM) 20.2% | viability, T/C (second compound 0.1 µM, first compound 10 µM) 16.7% | viability, T/C [9] 79.9% | viability, T/C [10] 79.9% | viability, T/C (second compound 0.316 µM, first compound 0.316 µM) 68.2% | viability, T/C (second compound 0.316 µM, first compound 1 µM) 51% | viability, T/C (second compound 0.316 µM, first compound 3.16 µM) 23.5% | viability, T/C (second compound 0.316 µM, first compound 10 µM) 19.5% | viability, T/C [11] 87.8% | viability, T/C [12] 75.7% | viability, T/C (second compound 1 µM, first compound 0.316 µM) 84.4% | viability, T/C (second compound 1 µM, first compound 1 µM) 58.6% | viability, T/C (second compound 1 µM, first compound 3.16 µM) 33.9% | viability, T/C (second compound 1 µM, first compound 10 µM) 20.9%
5.81: pIC50 (second compound 0.01 µM) | pIC50 (second compound 1 µM)
6.03: pIC50 (second compound 0.316 µM)
5.65: pIC50 (second compound 0.00316 µM)

CC(C)n1nc(-c2ccc3oc(N)nc3c2)c2c(N)ncnc21 + C=CC(=O)N1CCN(c2nc(OCC3CCCN3C)nc3c(F)c(-c4nc(N)cc(C)c4C(F)(F)F)c(Cl)cc23)C(C)C1
7.81: pIC50 (second compound 0.1 µM)
inactive: viability, T/C (second compound 0.00316 µM, first compound 0.000316 µM) 97.8% | viability, T/C (second compound 0.00316 µM, first compound 0.001 µM) 98.3% | viability, T/C (second compound 0.00316 µM, first compound 0.00316 µM) 90.6% | viability, T/C (second compound 0.00316 µM, first compound 0.01 µM) 73.3% | viability, T/C [1] 34.9% | viability, T/C [2] 17.7% | viability, T/C (second compound 0.01 µM, first compound 0.000316 µM) 88.9% | viability, T/C (second compound 0.01 µM, first compound 0.001 µM) 89.2% | viability, T/C (second compound 0.01 µM, first compound 0.00316 µM) 81.8% | viability, T/C (second compound 0.01 µM, first compound 0.01 µM) 79.3% | viability, T/C [3] 32.1% | viability, T/C [4] 15.2% | viability, T/C (second compound 0.0316 µM, first compound 0.000316 µM) 83.8% | viability, T/C (second compound 0.0316 µM, first compound 0.001 µM) 74.4% | viability, T/C (second compound 0.0316 µM, first compound 0.00316 µM) 78.4% | viability, T/C (second compound 0.0316 µM, first compound 0.01 µM) 71.4% | viability, T/C [5] 27.1% | viability, T/C [6] 14.4% | viability, T/C (second compound 0.1 µM, first compound 0.000316 µM) 75.6% | viability, T/C (second compound 0.1 µM, first compound 0.001 µM) 78.5% | viability, T/C (second compound 0.1 µM, first compound 0.00316 µM) 73.9% | viability, T/C (second compound 0.1 µM, first compound 0.01 µM) 65.5% | viability, T/C [7] 24.7% | viability, T/C [8] 14.5% | viability, T/C (second compound 0.316 µM, first compound 0.000316 µM) 82.9% | viability, T/C (second compound 0.316 µM, first compound 0.001 µM) 70% | viability, T/C (second compound 0.316 µM, first compound 0.00316 µM) 70.9% | viability, T/C (second compound 0.316 µM, first compound 0.01 µM) 61.6% | viability, T/C [9] 25.5% | viability, T/C [10] 14.6% | viability, T/C (second compound 1 µM, first compound 0.000316 µM) 72.6% | viability, T/C (second compound 1 µM, first compound 0.001 µM) 77.8% | viability, T/C (second compound 1 µM, first compound 0.00316 µM) 84.1% | viability, T/C (second compound 1 µM, first compound 0.01 µM) 68.3% | viability, T/C [11] 25.2% | viability, T/C [12] 14.4%
7.69: pIC50 (second compound 0.01 µM)
7.76: pIC50 (second compound 0.0316 µM)
7.79: pIC50 (second compound 1 µM)
7.70: pIC50 (second compound 0.00316 µM)
7.85: pIC50 (second compound 0.316 µM)
